Source: US20230321067A1, “DOSING REGIMEN COMPRISING 3-(1-OXOISOINDOLIN-2-YL)PIPERIDINE-2,6-DIONE DERIVATIVES” (Novartis AG, priority 2020, published 2023)
Like-named read-outs stand apart in the source and are kept apart here.

How the values were obtained:
[1] = tested on: peripheral T cells; assay: Proliferation of peripheral T cells (Ki67 staining) in immunized cynomolgus monkeys (FIG. 9B); type: in vivo, cynomolgus monkey; details: 3 mg/kg daily, recall response phase, compared to immunization alone
Description: FIG. 9B. is a graph showing proliferation of peripheral T cells (Mean+/−SEM, % of predose) upon treatment with 0.1 and 3 mg/kg of Compound I-57 in cynomolgus monkeys.

[2] = In vivo non-clinical PK, monkey; parameters: species or system cynomolgus monkey
Description: (§1) The in vivo non-clinical PK profile of I-57 was investigated in mouse, rat, dog and cynomolgus monkey using I-57 free base. […] After p.o. administration, the absorption of I-57 was rapid with peak blood concentration (Tmax) occurring between 1 and 4 hours. […] In high dose PK and toxicology studies with I-57 the exposures in mouse, rat and monkey increased with dose.

[3] = Blood-to-plasma ratio, across species; type: in vitro ADME
Excerpt: (§2) The binding to plasma protein of I-57 in vitro was moderate in all species, with an observed difference between rodents (73% in mouse, 76% in rat) and non-rodents (52% in dog and monkey, 54% in human). Blood-to-plasma ratios were in the range of 0.7-1.8 (human 1.1-1.3). […] Based on results with non-radiolabeled I-57 in the dog, a significant amount of unchanged I-57 was renally eliminated (˜20% of dose).

[4] = Blood-to-plasma ratio, human; type: in vitro ADME
Excerpt: as §2

[5] = tested on: CYP3A; assay: CYP inhibition: CYP3A; type: in vitro ADME; details: I-57 concentrations of up to 100 μM
[6] = biological target: CYP2C19 (Homo sapiens, UniProt P33261); assay: CYP inhibition: CYP2C19; type: in vitro ADME; details: I-57 concentrations of up to 100 μM
CYP2C19, sequence (P33261 whole entry): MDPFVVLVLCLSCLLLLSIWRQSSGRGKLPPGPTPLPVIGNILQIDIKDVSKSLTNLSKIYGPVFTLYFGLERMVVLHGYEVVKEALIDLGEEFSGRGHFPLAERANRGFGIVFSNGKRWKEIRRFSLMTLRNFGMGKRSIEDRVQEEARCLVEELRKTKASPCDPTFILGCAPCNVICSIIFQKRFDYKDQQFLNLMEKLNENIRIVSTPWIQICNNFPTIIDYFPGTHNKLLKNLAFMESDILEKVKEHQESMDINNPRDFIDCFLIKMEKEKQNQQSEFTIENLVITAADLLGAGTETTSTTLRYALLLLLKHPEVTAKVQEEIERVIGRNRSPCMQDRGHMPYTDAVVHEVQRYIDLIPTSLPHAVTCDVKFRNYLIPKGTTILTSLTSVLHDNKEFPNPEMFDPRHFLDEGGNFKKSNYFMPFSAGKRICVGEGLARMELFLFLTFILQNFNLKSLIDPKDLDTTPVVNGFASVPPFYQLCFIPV

[7] = Phototoxic potential
[8] = tested on: plasma protein; assay: Plasma protein binding in vitro, mouse; type: in vitro ADME
Excerpt: as §2

[9] = biological target: P-gp (Homo sapiens, UniProt P08183); assay: P-gp substrate assessment; type: in vitro ADME
P-gp, sequence (P08183 whole entry): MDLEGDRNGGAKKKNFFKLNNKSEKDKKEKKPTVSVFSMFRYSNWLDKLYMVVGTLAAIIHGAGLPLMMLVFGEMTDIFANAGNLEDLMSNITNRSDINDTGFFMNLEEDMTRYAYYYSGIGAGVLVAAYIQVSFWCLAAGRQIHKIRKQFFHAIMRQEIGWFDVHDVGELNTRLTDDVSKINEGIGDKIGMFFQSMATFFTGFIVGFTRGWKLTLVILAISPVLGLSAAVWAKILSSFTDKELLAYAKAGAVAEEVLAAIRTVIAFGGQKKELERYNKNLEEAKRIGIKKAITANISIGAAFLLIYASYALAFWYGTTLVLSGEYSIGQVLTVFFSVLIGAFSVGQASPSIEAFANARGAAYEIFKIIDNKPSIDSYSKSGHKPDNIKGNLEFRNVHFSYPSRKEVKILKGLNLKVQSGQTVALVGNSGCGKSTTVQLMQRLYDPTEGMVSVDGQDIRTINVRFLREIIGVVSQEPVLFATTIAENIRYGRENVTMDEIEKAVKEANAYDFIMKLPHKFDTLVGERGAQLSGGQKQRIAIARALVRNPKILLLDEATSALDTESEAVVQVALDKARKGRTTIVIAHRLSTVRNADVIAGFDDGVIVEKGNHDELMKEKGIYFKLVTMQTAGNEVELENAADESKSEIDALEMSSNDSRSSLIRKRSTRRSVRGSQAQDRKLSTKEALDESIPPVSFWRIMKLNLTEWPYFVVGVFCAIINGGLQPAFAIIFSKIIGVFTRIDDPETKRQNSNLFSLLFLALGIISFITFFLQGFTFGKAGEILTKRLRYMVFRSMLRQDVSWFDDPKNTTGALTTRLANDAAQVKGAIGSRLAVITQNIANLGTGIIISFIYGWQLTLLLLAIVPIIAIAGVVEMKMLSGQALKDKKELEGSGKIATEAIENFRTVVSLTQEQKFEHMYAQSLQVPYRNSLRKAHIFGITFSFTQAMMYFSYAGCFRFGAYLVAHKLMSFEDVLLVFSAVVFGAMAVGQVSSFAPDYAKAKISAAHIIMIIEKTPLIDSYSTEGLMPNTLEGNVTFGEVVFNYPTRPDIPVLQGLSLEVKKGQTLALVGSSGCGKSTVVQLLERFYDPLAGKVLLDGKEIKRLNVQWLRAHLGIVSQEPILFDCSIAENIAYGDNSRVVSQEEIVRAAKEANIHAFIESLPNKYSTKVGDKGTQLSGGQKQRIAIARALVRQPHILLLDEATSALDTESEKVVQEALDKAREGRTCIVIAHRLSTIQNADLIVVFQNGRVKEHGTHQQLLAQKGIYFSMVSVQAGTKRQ

[10] = tested on: plasma protein; assay: Plasma protein binding in vitro, rat; type: in vitro ADME
Excerpt: as §2

[11] = Repeated oral dose PK in MDA-MB231 xenograft human PBMC adoptive transfer model; type: in vivo, NSG mice; details: hPBMC AdT mouse
Description: The PK/PD relationship of I-57 was examined in the hPBMC AdT model system. Human PBMCs were adoptively transferred into female NSG mice harboring established MDA-MB231 xenografts (FIG. 6). This model was selected based on the observation that IKZF2 positive Tregs (CD4+FOXP3+) were readily identifiable in peripheral blood and infiltrated in the tumor xenografts.
Mice were administered I-57 daily for 14 consecutive days at the doses shown. Longitudinal I-57 plasma concentrations were assessed (Table 14).

[12] = Repeated daily oral dose PK in cynomolgus monkey; type: in vivo; details: unbound; for Cmax / AUC(0-t): plasma, po; for AUC(0-t): read-out: AUC0-24
Description: (§3) The PK/PD relationship of I-57 was further examined in cynomolgus monkeys after repeated daily oral doses of 0.1 and 3 mg/kg. In this study, a cohort of animals were initially immunized with an antigen-adjuvant mixture (KLH/Squalene). The experiment was designed to assess the effect of I-57 exposure, and the resulting IKZF2 degradation, on immune response during immunization to test the hypothesis that IKZF2 degradation would result in increased proliferation of stimulated T-cells. In the experiment, daily I-57 oral treatment was initiated 5 days after immunization. An immunization booster dose was administered on day 15. I-57 plasma concentration and IKZF2 expression (as determined by flow cytometry) in FOXP3+ T cells from PBMCs were determined (FIG. 9A and FIG. 9B).

[13] = In vivo non-clinical PK, dog
Description: as §1, §2

[14] = biological target: CYP2C8 (Homo sapiens, UniProt P10632); assay: Time-dependent CYP inhibition: CYP2C8; type: in vitro ADME; details: I-57 concentrations of up to 100 μM
CYP2C8, sequence (P10632 whole entry): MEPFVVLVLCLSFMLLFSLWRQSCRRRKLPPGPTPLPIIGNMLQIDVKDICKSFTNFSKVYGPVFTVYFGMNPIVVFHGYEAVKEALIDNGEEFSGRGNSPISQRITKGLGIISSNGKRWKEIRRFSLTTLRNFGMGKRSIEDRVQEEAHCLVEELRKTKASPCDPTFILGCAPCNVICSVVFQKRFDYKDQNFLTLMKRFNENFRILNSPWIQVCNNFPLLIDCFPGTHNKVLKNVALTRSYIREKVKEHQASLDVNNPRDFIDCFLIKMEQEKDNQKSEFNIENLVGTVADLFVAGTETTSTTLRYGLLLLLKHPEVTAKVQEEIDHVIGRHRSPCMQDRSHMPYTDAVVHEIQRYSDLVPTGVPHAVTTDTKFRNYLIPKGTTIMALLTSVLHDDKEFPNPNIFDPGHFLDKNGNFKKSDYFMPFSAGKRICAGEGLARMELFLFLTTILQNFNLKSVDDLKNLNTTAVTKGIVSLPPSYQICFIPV

[15] = tested on: IKZF2; assay: Repeated daily oral dose PD in cynomolgus monkey: IKZF2 in FOXP3+ T cells by flow cytometry; type: in vivo
Description: as §3
Consistent with previous findings, IKZF2 degradation was detected 24 h after the first dose (at day 6) (FIG. 9A and FIG. 9B). The levels of IKZF2 decreased further upon repeat dosing and reached a steady-state level approximately 72 h after initiation of treatment. This level of degradation was maintained throughout the remainder of the treatment (24 days).

[16] = female, NSG, mouse, plasma, po, 0.3 mg/kg, unbound, post 1st dose, p.o. 0.3 mg/kg daily
[17] = female, NSG, mouse, plasma, po, 0.3 mg/kg, unbound, post 13th dose, p.o. 0.3 mg/kg daily
[18] = female, NSG, mouse, plasma, po, 1 mg/kg, unbound, post 1st dose, p.o. 1 mg/kg daily
[19] = female, NSG, mouse, plasma, po, 1 mg/kg, unbound, post 13th dose, p.o. 1 mg/kg daily
[20] = female, NSG, mouse, plasma, po, 3 mg/kg, unbound, post 1st dose, p.o. 3 mg/kg daily
[21] = female, NSG, mouse, plasma, po, 3 mg/kg, unbound, post 13th dose, p.o. 3 mg/kg daily
[22] = female, NSG, mouse, plasma, po, 30 mg/kg, unbound, post 1st dose, p.o. 30 mg/kg daily
[23] = female, NSG, mouse, plasma, po, 30 mg/kg, unbound, post 13th dose, p.o. 30 mg/kg daily
[24] = 0.1 mg/kg/day, Day 5, Group 2 (only I-57), 0.1 mg/kg/day oral
[25] = 0.1 mg/kg/day, Day 5, Group 4 (I-57 + KLH + adjuvant), 0.1 mg/kg/day oral
[26] = 0.1 mg/kg/day, Day 29, Group 2 (only I-57), 0.1 mg/kg/day oral
[27] = 0.1 mg/kg/day, Day 29, Group 4 (I-57 + KLH + adjuvant), 0.1 mg/kg/day oral
[28] = 3 mg/kg/day, Day 5, Group 5 (I-57 + KLH + adjuvant), 3 mg/kg/day oral
[29] = 3 mg/kg/day, Day 29, Group 5 (I-57 + KLH + adjuvant), 3 mg/kg/day oral
[30] = Day 5, Group 2 (only I-57), 0.1 mg/kg/day oral
[31] = Day 5, Group 4 (I-57 + KLH + adjuvant), 0.1 mg/kg/day oral
[32] = Day 5, Group 5 (I-57 + KLH + adjuvant), 3 mg/kg/day oral
[33] = Day 29, Group 2 (only I-57), 0.1 mg/kg/day oral
[34] = Day 29, Group 4 (I-57 + KLH + adjuvant), 0.1 mg/kg/day oral
[35] = Day 29, Group 5 (I-57 + KLH + adjuvant), 3 mg/kg/day oral

O=C1CCC(N2Cc3cc(C4CCN(Cc5ccccc5)CC4)ccc3C2=O)C(=O)N1 (stereo not shown) [Compound I-57, 3-(5-(1-benzylpiperidin-4-yl)-1-oxoisoindolin-2-yl)piperidine-2,6-dione]
proportion of proliferative peripheral T cells (Ki67 staining) [1]: increased
dose proportionality of AUC ([2]; above 100 mg/kg): less than dose proportional
dose proportionality of AUC ([2]; between 10 mg/kg and 100 mg/kg): slightly over-proportional
bioavailability ([2]; cynomolgus monkey, blood, po): 89%
blood plasma ratio [3]: 0.7 to 1.8
blood plasma ratio [4]: 1.1 to 1.3
inhibition of CYP3A [5]: very little and no inhibition
inhibition of CYP2C19 [6]: very little and no inhibition
phototoxic potential [7]: no genotoxic or phototoxic potential
binding to plasma protein [8]: 73%
P-gp substrate status [9]: P-gp substrate
binding to plasma protein [10]: 76%
AUC(0-inf) [11, 16]: 7.1 ng·h/mL
Cmax [11, 16]: 2.9 ng/mL
AUC(0-inf) [11, 17]: 7.5 ng·h/mL
Cmax [11, 17]: 1.1 ng/mL
AUC(0-inf) [11, 18]: 30 ng·h/mL
Cmax [11, 18]: 8.8 ng/mL
AUC(0-inf) [11, 19]: 20 ng·h/mL
Cmax at 13 days [11, 19]: 4.6 ng/mL
AUC(0-inf) [11, 20]: 157 ng·h/mL
Cmax [11, 20]: 53 ng/mL
AUC(0-inf) [11, 21]: 92 ng·h/mL
Cmax [11, 21]: 27 ng/mL
AUC(0-inf) [11, 22]: 3470 ng·h/mL
Cmax [11, 22]: 1250 ng/mL
AUC(0-inf) [11, 23]: 4270 ng·h/mL
Cmax [11, 23]: 1300 ng/mL
dose proportionality of AUC and Cmax ([11]; between 3 and 30 mg/kg): over-dose proportional increase
change in exposure by repeated dosing ([11]; daily dosing): No significant increase in exposure
dose proportionality of AUC and Cmax ([11]; from 0.3 to 3 mg/kg): dose proportional increase
Cmax [12, 24]: 7.1 ng/mL
AUC(0-t) [12, 24]: 56.8 ng·h/mL
Cmax [12, 25]: 11 ng/mL
AUC(0-t) [12, 25]: 63.5 ng·h/mL
Cmax [12, 26]: 13.1 ng/mL
AUC(0-t) [12, 26]: 78.1 ng·h/mL
Cmax [12, 27]: 18 ng/mL
AUC(0-t) [12, 27]: 96.4 ng·h/mL
Cmax [12, 28]: 523 ng/mL
AUC(0-t) [12, 28]: 2840 ng·h/mL
Cmax [12, 29]: 504 ng/mL
AUC(0-t) [12, 29]: 3460 ng·h/mL
AUC0-24/D [12, 30]: 567 (ng · h/mL)/(mg/kg)
Cmax/D [12, 30]: 71.0 (ng/mL)/(mg/kg)
AUC0-24/D [12, 31]: 634 (ng · h/mL)/(mg/kg)
Cmax/D [12, 31]: 110 (ng/mL)/(mg/kg)
AUC0-24/D [12, 32]: 946 (ng · h/mL)/(mg/kg)
Cmax/D [12, 32]: 175 (ng/mL)/(mg/kg)
AUC0-24/D [12, 33]: 782 (ng · h/mL)/(mg/kg)
Cmax/D [12, 33]: 131 (ng/mL)/(mg/kg)
AUC0-24/D [12, 34]: 965 (ng · h/mL)/(mg/kg)
Cmax/D [12, 34]: 180 (ng/mL)/(mg/kg)
AUC0-24/D [12, 35]: 1150 (ng · h/mL)/(mg/kg)
Cmax/D [12, 35]: 169 (ng/mL)/(mg/kg)
bioavailability ([13]; blood, po): 91%
unchanged I-57 renally eliminated ([13]; non-radiolabeled I-57): ~20 % of dose
time-dependent inhibition of CYP2C8 [14]: no apparent time-dependent inhibition
IKZF2 degradation ([15]; 0.1 mg/kg dose level, repeated daily): profound
time after initiation of treatment to steady-state level of IKZF2 ([15]; repeated daily oral doses): approximately 72 h
time after the first dose at which IKZF2 degradation was detected ([15]; repeated daily oral doses of 0.1 and 3 mg/kg): 24 h
